Results on 29 molecules are retold here after patent US10294212B2 (CURADEV PHARMA PRIVATE LTD., priority 2013, dated 2019).

The target of assay [1] is Human indoleamine 2,3-dioxygenase1 (hIDO1) (Homo sapiens (Human), UniProt P14902). Nature of the assay: In-vitro IDO1 enzyme assay (conversion of L-tryptophan to KYN). It is filed as biochemical. As to conditions: read-out: IC50 (IDO1) Enz. The gist of the method: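 Kynurenine formation quantified by HPLC absorbance at 360 nm or LC/MS/MS after TCA quench and 15 min at 65 °C. Reaction: 10 nM N-His hIDO1, 30 μM tryptophan, ascorbate/methylene blue/catalase, pH 6.5 phosphate buffer, 37 °C for 30 min. Inhibition relative to 1% DMSO vehicle, fitted to IC50.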

Assay [2] concerns the target IDO1 in HeLa cells (Homo sapiens (Human), UniProt P14902). Kind of assay: HeLa cell based IDO1 assay (IFNγ-induced, KYN in supernatant). The gist of the method:
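Kynurenine in the supernatant, quantified by C-18 HPLC with 360 nm absorbance after TCA hydrolysis (65 °C, 15 min), was the read-out. Compounds (typically 10 μM to 1 nM) were added in HBSS containing 80 μM tryptophan to HeLa cells pre-induced overnight with 50 ng/mL IFNγ. IC50 came from nonlinear fits of % inhibition versus 1% DMSO vehicle.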

Assay [3] has as its target Human TDO (hTDO)-transfected CHO-K1 cells (Homo sapiens (Human), UniProt P48775). Nature of the assay: CHO-K1 cell based TDO assay. As to conditions: hTDO cellular assay. In outline: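 Kynurenine output was read by LC/MS/MS after TCA precipitation and 15 min at 65° C. Before that, CHO-K1 cells stably carrying human TDO2 were incubated 2 h with compounds (typically 31 μM to 10 nM) and 80 μM L-tryptophan in HBSS. Decrease versus DMSO vehicle gave percent inhibition, then IC50.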

Human TDO (hTDO)-transfected CHO-K1 cells, sequence (P48775 whole entry): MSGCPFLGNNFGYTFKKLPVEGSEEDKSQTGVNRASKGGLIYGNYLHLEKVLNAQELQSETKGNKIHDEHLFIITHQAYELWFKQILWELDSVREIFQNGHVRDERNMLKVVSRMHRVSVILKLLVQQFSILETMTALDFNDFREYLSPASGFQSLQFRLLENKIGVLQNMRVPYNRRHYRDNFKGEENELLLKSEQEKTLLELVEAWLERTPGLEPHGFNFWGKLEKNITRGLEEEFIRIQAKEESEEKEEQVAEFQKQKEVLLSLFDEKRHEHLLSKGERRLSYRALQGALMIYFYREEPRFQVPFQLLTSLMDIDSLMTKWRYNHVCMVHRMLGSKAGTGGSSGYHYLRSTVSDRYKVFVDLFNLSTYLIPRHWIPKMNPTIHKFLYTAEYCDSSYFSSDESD
IDO1 in HeLa cells, sequence (P14902 whole entry): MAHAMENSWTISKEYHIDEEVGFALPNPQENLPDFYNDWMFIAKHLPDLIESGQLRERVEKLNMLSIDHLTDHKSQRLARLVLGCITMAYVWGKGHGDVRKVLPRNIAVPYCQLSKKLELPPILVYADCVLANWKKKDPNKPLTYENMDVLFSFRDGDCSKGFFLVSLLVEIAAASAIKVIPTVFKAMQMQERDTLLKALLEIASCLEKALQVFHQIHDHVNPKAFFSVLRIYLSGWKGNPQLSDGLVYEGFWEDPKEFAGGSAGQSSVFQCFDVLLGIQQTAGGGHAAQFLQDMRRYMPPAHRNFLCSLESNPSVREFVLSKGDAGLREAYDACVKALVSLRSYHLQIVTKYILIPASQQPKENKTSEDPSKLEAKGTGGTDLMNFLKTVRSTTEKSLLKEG
Human indoleamine 2,3-dioxygenase1 (hIDO1), sequence (P14902 whole entry): as above

`Nc1oc2c(-c3ccnc(C(=O)N4CCOCC4)c3)nccc2c1Nc1ccc(F)c(Cl)c1` [Compound 272, (4-(2-Amino-3-((3-chloro-4-fluorophenyl)amino)furo[2,3-c]pyridin-7-yl)pyridin-2-yl)(morpholino)methanone]: the concentration for half-maximal inhibition (IC50) is less than 0.2 µM in assay [1], less than 0.2 µM in assay [2] and 0.5 to 2 µM in assay [3].
For the molecule `Nc1oc2c(-c3ccncc3)nccc2c1Nc1cc(F)cc(F)c1` [Compound 187, N^3-(3,5-Difluorophenyl)-7-(pyridin-4-yl)furo[2,3-c]pyridine-2,3-diamine], the half-maximal inhibitory concentration (IC50) in assay [1] is 0.2 to 1 µM; in assay [2], less than 0.2 µM; in assay [3], less than 0.5 µM.
The matching figures for `Nc1sc2ccccc2c1Nc1ccc(F)c(Cl)c1` [Compound 117, N^3-(3-Chloro-4-fluorophenyl)benzo[b]thiophene-2,3-diamine]: less than 0.2 µM, less than 0.2 µM and less than 0.5 µM.
On to `Nc1oc2c(-c3ccncc3)nccc2c1Nc1ccc(F)cc1` [Compound 201, N^3-(4-Fluorophenyl)-7-(pyridin-4-yl)furo[2,3-c]pyridine-2,3-diamine], for which the concentration for half-maximal inhibition (IC50) was less than 0.2 µM in assay [1], less than 0.2 µM in assay [2] and less than 0.5 µM in assay [3].
On to `Nc1oc2c(-c3ccccc3Cl)nccc2c1Nc1ccc(F)c(F)c1` [Compound 197, 7-(2-Chlorophenyl)-N^3-(3,4-difluorophenyl)furo[2,3-c]pyridine-2,3-diamine], for which the half-inhibitory concentration (IC50) is less than 0.2 µM in assay [1], less than 0.2 µM in assay [2] and less than 0.5 µM in assay [3].
For `CCCc1nccc2c(Nc3ccc(F)c(C(F)(F)F)c3)c(N)oc12` [Compound 79, N^3-(4-Fluoro-3-(trifluoromethyl)phenyl)-7-propylfuro[2,3-c]pyridine-2,3-diamine], the half-inhibitory concentration (IC50) in assay [1] was less than 0.2 µM; in assay [2] it was less than 0.2 µM; in assay [3], 0.5 to 2 µM.
On to `Nc1oc2c(Br)nccc2c1Nc1ccc(F)c(Cl)c1` [Compound 159, 7-Bromo-N^3-(3-chloro-4-fluorophenyl)furo[2,3-c]pyridine-2,3-diamine], for which the IC50 is less than 0.2 µM in assay [1], less than 0.2 µM in assay [2] and less than 0.5 µM in assay [3].
Regarding `Nc1oc2cnccc2c1Nc1cccc(F)c1` [Compound 46, N^3-(3-Fluorophenyl)furo[2,3-c]pyridine-2,3-diamine], the 50% inhibitory concentration (IC50) in assay [1] is 0.2 to 1 µM; in assay [2], less than 0.2 µM; in assay [3], 0.5 to 2 µM.
The matching figures for `CCCCOc1cc2c(Nc3ccc(F)c(Cl)c3)c(N)oc2c(-c2ccccc2)n1` [Compound 102, 5-Butoxy-N^3-(3-chloro-4-fluorophenyl)-7-phenylfuro[2,3-c]pyridine-2,3-diamine]: greater than 1 µM, greater than 1 µM and greater than 2 µM.
In the same order, the values of `Cc1cc(-c2nc(F)cc3c(Nc4ccc(F)cc4)c(N)oc23)ccn1` [Compound 241, 5-Fluoro-N^3-(4-fluorophenyl)-7-(2-methylpyridin-4-yl)furo[2,3-c]pyridine-2,3-diamine] are less than 0.2 µM, less than 0.2 µM and less than 0.5 µM.
The matching figures for `Cc1cc(Nc2c(N)oc3cnccc23)ccc1F` [Compound 27, N^3-(4-Fluoro-3-methylphenyl)furo[2,3-c]pyridine-2,3-diamine]: less than 0.2 µM, less than 0.2 µM and 0.5 to 2 µM.
Consider `CC(C)c1nccc2c(Nc3ccc(F)c(Cl)c3)c(N)oc12` [Compound 83, N^3-(3-Chloro-4-fluorophenyl)-7-isopropylfuro[2,3-c]pyridine-2,3-diamine], for which the IC50 in assay [1] is less than 0.2 µM; in assay [2] it was less than 0.2 µM; in assay [3], 0.5 to 2 µM.
Take `Nc1oc2c(C3CCCCC3)nccc2c1Nc1ccc(F)c(Cl)c1` [Compound 108, N^3-(3-Chloro-4-fluorophenyl)-7-cyclohexylfuro[2,3-c]pyridine-2,3-diamine]: the IC50 is less than 0.2 µM in assay [1], less than 0.2 µM in assay [2] and 0.5 to 2 µM in assay [3].
For `Nc1oc2cnccc2c1Nc1ccc(Cl)c(Cl)c1` [Compound 15, N^3-(3,4-Dichlorophenyl)furo[2,3-c]pyridine-2,3-diamine], the concentration for half-maximal inhibition (IC50) in assay [1] lay within 0.2 to 1 µM; in assay [2], 0.2 to 1 µM; in assay [3], 0.5 to 2 µM.
Regarding `Nc1oc2c(-c3ccccc3)nccc2c1Nc1ccc(F)c(Cl)c1` [Compound 81, N^3-(3-Chloro-4-fluorophenyl)-7-phenylfuro[2,3-c]pyridine-2,3-diamine], the IC50 was less than 0.2 µM in assay [1], less than 0.2 µM in assay [2] and less than 0.5 µM in assay [3].
With `Nc1oc2c(-c3ccc4c(c3)OCO4)nccc2c1Nc1ccc(F)c(Cl)c1` [Compound 261, 7-(Benzo[d][1,3]dioxol-5-yl)-N^3-(3-chloro-4-fluorophenyl)furo[2,3-c]pyridine-2,3-diamine], the half-inhibitory concentration (IC50) in assay [1] is less than 0.2 µM; in assay [2], less than 0.2 µM; in assay [3], 0.5 to 2 µM.
For the molecule `Cc1cc(-c2nccc3c(Nc4cccc(C(F)(F)F)c4)c(N)oc23)ccn1` [Compound 207, 7-(2-methylpyridin-4-yl)-N^3-(3-(trifluoromethyl)phenyl)furo[2,3-c]pyridine-2,3-diamine], the half-maximal inhibitory concentration (IC50) was less than 0.2 µM in assay [1], less than 0.2 µM in assay [2] and 0.5 to 2 µM in assay [3].
In the case of `Nc1oc2cnccc2c1Nc1ccc(F)c(C(F)(F)F)c1` [Compound 60, N^3-(4-Fluoro-3-(trifluoromethyl)phenyl)furo[2,3-c]pyridine-2,3-diamine], the IC50 in assay [1] was less than 0.2 µM; in assay [2], less than 0.2 µM; in assay [3], 0.5 to 2 µM.
As to `Nc1oc2c(-c3ccnc(C(F)(F)F)c3)nccc2c1Nc1ccc(F)c(Cl)c1` [Compound 268, N^3-(3-Chloro-4-fluorophenyl)-7-(2-(trifluoromethyl)pyridin-4-yl)furo[2,3-c]pyridine-2,3-diamine], the concentration for half-maximal inhibition (IC50) is less than 0.2 µM in assay [1], less than 0.2 µM in assay [2] and greater than 2 µM in assay [3].
In the case of `COc1ccc(Cl)cc1Nc1c(N)oc2cnccc12` [Compound 25, N^3-(5-Chloro-2-methoxyphenyl)furo[2,3-c]pyridine-2,3-diamine], the IC50 is greater than 1 µM in assay [1], 0.2 to 1 µM in assay [2] and 0.5 to 2 µM in assay [3].
The matching figures for `N#Cc1ccc2c(Nc3cccc(C(F)(F)F)c3)c(N)oc2c1` [Compound 113, 2-Amino-3-((3-(trifluoromethyl)phenyl)amino)benzofuran-6-carbonitrile]: less than 0.2 µM, less than 0.2 µM and 0.5 to 2 µM.
The matching figures for `Nc1sc2ccccc2c1Nc1ccc(Cl)c(C(F)(F)F)c1` [Compound 124, N^3-(4-Chloro-3-(trifluoromethyl)phenyl)benzo[b]thiophene-2,3-diamine]: less than 0.2 µM, less than 0.2 µM and greater than 2 µM.
As to `C#Cc1cc(Nc2c(N)oc3c(-c4ccncc4)nccc23)ccc1F` [Compound 111, N^3-(3-Ethynyl-4-fluorophenyl)-7-(pyridin-4-yl)furo[2,3-c]pyridine-2,3-diamine], the results for the IC50 in assay [1], in assay [2] and in assay [3] were less than 0.2 µM, less than 0.2 µM and 0.5 to 2 µM, respectively.
Turning to `Cc1cccc(Nc2c(N)sc3ccccc23)c1C` [Compound 138, N^3-(2,3-Dimethylphenyl)-1-benzothiophene-2,3-diamine], the IC50 in assay [1] was greater than 1 µM; in assay [2], 0.2 to 1 µM; in assay [3], 0.5 to 2 µM.
The matching figures for `Cc1cc(-c2nc(F)cc3c(Nc4ccc(F)c(Cl)c4)c(N)oc23)ccn1` [Compound 244, N^3-(3-Chloro-4-fluorophenyl)-5-fluoro-7-(2-methylpyridin-4-yl)furo[2,3-c]pyridine-2,3-diamine]: less than 0.2 µM, less than 0.2 µM and 0.5 to 2 µM.
The matching figures for `Nc1sc2ccccc2c1Nc1cccc(Cl)c1` [Compound 234, N^3-(3-Chlorophenyl)benzo[b]thiophene-2,3-diamine]: less than 0.2 µM, less than 0.2 µM and less than 0.5 µM.
The matching figures for `C#Cc1cccc(Nc2c(N)sc3ccccc23)c1` [Compound 137, N^3-(3-Ethynylphenyl)-1-benzothiophene-2,3-diamine]: 0.2 to 1 µM, less than 0.2 µM and greater than 2 µM.
In the case of `Cc1cc(-c2nccc3c(Nc4cccc(Cl)c4F)c(N)oc23)ccn1` [Compound 264, N^3-(3-Chloro-2-fluorophenyl)-7-(2-methylpyridin-4-yl)furo[2,3-c]pyridine-2,3-diamine], the IC50 in assay [1] is 0.2 to 1 µM; in assay [2], less than 0.2 µM; in assay [3] it was greater than 2 µM.
The matching figures for `Nc1sc2ccccc2c1Nc1ccc(F)c(F)c1` [Compound 211, N^3-(3,4-Difluorophenyl)benzo[b]thiophene-2,3-diamine]: less than 0.2 µM, less than 0.2 µM and less than 0.5 µM.
